Counter-ions that a name gives are not always drawn. Like-named read-outs stand apart in the source and are kept apart here.
Key:
[1] = In vitro release of RM, modified Franz diffusion cells with dialysis membrane, simulated nasal fluid; format: physicochemical; conditions: simulated nasal fluid pH 6.5, 37 °C, 50 rpm
Method: The in vitro release of RM from the optimized systems was investigated using modified Franz diffusion cells (Franz diffusion cell with dialysis membrane). In a few words, an exact volume of each optimized system was placed in the donor cell, and the dialysis process was performed against 50 mL of simulated nasal fluid (SNF; CaCl2.2H2O 0.32 mg/mL, NaCl 7.45 mg/mL, KCl 1.29 mg/mL, pH 6.5) maintained at 37 °C while stirring at 50 rpm. Three milliliter sample was withdrawn at each time interval (0.25, 0.5, 1, 1.5, 2, 3, 4, 6, 8, 10 and 12 h) and replaced with equal volumes of drug free SNF [39]. The amount of RM in each sample was measured spectrophotometrically at λmax 265 nm. The in vitro release profiles of the two optimized systems were compared to RM aqueous solution profile. Furthermore, the mean dissolution time (MDT) was calculated for both systems following Eq. (2):2 MDT=∑j=1ntj∗ΔMj/∑j=1nΔMj where j is the sample number, tj* is the midpoint time between t and tj-1 that can be calculated by (t + tj-1/2), n is the number of release samples, and ∆Mj is the additional amount released between t and tj-1. The higher the MDT value, the slower the drug release rate.

[2] = after oral administration; cited from earlier work
[3] = In vivo pharmacokinetics and brain targeting in rats, LC-MS/MS of brain homogenate and plasma; conditions: rat, RM in brain, intravenous, 0.05 mg/kg/day
Method: In order to evaluate the in vivo performance of the selected MST 2, an in vivo pharmacokinetics study was performed to measure the bioavailability and brain-targeting ability of the selected system after intranasal administration into rats. The study protocol was previously approved by the research ethics committee for the experimental and clinical studies at the Faculty of Pharmacy Cairo University with approval code (PI 2680). Briefly, forty-eight rats were divided into two groups (n = 24), and each group was divided into eight subgroups (n = 3). The average weight of the rats was 180 gm, and they were subjected to 12-h cycles of light/darkness. They were kept in cages with free access to food and water. The relative humidity was maintained in range 40–60%, and the temperature ranged from 20 to 25 °C during the experiment.
The first group was administered the optimized MST 2 equivalent to 0.05 mg/kg/day of RM [44] intranasally (IN) using a polyethylene tube which was attached to Hamilton syringe, whereas the second group was administered the same dose of an intravenous (IV) RM aqueous solution through the tail vein. Blood samples were collected from the rats at specified time intervals (0.25, 0.5, 1, 1.5, 2, 4, 8, and 12 h) via the puncture of lateral vesicular vein, centrifuged at 4000 rpm for 15 min, and separated to obtain the plasma that was then frozen at –80 °C until further investigations. Additionally, six rats (three of each subgroup) were anaesthetized and sacrificed to separate the brain tissues at 0.5, 1, 2, 4, and 8 h. The brain tissues were washed twice with normal saline and then weighed. An equal weight of normal saline was added to each brain sample, which was then homogenized (Heidolph DIAX 900, Heidolph Instruments, Schwabach, Germany) and kept frozen at – 80 °C until analysis. RM levels in plasma samples and brain homogenates were measured by a validated liquid chromatography-mass spectrometry (LC–MS/MS) method.
Calibration curves of RM in plasma and brain homogenate were constructed using clonazepam as internal standard (IS). Briefly, specific volumes of RM stock solution were mixed with one hundred microliter of clonazepam stock solution (100 ng/mL) and then spiked into 0.5 mL plasma or brain homogenate to obtain the following concentrations: 0.1, 1, 10, 20, 100, and 1000 ng/mL. For RM extraction from the samples, 0.5 mL of plasma samples or brain homogenates was mixed with 100 µL of clonazepam solution as IS and 4 mL of ethyl acetate to precipitate the proteins followed by vortexing (Stuart SA8, BiBBY Sterlin Ltd., UK) for 5 min and centrifugation for 10 min at 3000 rpm. The supernatant was transferred to a new tube to evaporate the organic solvent under vacuum using a vacuum concentrator (Eppendorf 5301, Hamburg, Germany). The obtained dry residue was reconstituted in 0.5 mL of the mobile phase (acetonitrile: 0.1% formic acid solution in water at a ratio (80:20 v/v)) after then, 9 µL of the obtained solution was injected into (LC–MS/MS) for analysis.
The analysis of RM in plasma samples and brain homogenates was done by LC–MS/MS (Shimadzu CBM20A, Japan) fitted with mass spectrometer AB Sciex 4000 (Sciex Instruments, USA) and auto-sampler (Shimadzu SIL20A, Japan). The mass spectrometer was equipped with turbo ion spray having a positive polarity with temperature set at 500 °C. The samples were analyzed by injecting aliquots of 9 µL, and the mobile phase flow rate was adjusted at 0.8 mL/min. The transition was from 172.036 to 117.000 m/z for RM and from 316.024 to 270 m/z in case of clonazepam. The analysis of the obtained results was done using Analyst software (version 1.6.3, Sciex Instruments, Framingham, USA).
Non-compartmental pharmacokinetic model was applied to analyze RM plasma and brain levels using Kinetica software (version 2000, Arlington, USA). […]

mean dissolution time (MDT) [1]: 0.333 ± 0.0991 h
time of complete release of RM [1]: 4 h
AUC(0-inf) [3]: 28 ± 1.84 ng·h/mL
Cmax [3]: 15.8 ± 0.34 ng/mL
Tmax [3]: 0.5 h
k el ([3]; read-out: K (hr^−1) elimination rate constant (converted)): 0.377 h⁻¹
MRT ([3]; read-out: MRT (hr) mean residence time): 2.27 ± 0.71 h
half-life ([3]; read-out: T1/2 half (converted)): 1.83 ± 0.24 h
Structure (SMILES): C#CCN[C@@H]1CCc2ccccc21 [RM, Rasagiline mesylate]
half-life [2]: 1.5 to 3.5 h
time to reach maximum concentration in plasma [2]: ≤ 1 h
